Results: patent US9079866B2, “Flap modulators” (JANSSEN PHARMACEUTICA NV, priority 2013, dated 2015)
Structures can show the parent of a compound that is named as a salt. Where two headings read alike, the source gives them in different places.

Legend:
human FLAP = human FLAP (Homo sapiens (Human), UniProt P20292); assay: FLAP binding assay (HTRF format)
Summary of the method: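 Binding of compounds to FLAP read out as HTRF ratio. Values are the mean of two assay plates, each sample run in duplicate per plate.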

[1] = system: leukotriene pathway in human whole blood (LTB4 levels); assay: Human whole blood assay (A23187-stimulated LTB4); type: cell-based; conditions: Homo sapiens, read-out: LTB4 IC50 1:1
Summary of the method: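 Blood (heparin) diluted 1:1 RPMI; compound pre-incubation 15 min, 37° Celsius; A23187 7 μg/mL, 30 min, 37° Celsius; plasma LTB4 by commercial kit. IC50 via 4-parameter equation.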

[2] = human whole blood diluted 1:1, A23187-stimulated
[3] = human FLAP wild type, HTRF format, average of two plates, duplicates
[4] = human whole blood diluted 1:1 in RPMI, A23187-stimulated LTB4
[5] = read-out: FLAP Binding wild type HTRF Ki

Sequence of human FLAP (P20292 whole entry): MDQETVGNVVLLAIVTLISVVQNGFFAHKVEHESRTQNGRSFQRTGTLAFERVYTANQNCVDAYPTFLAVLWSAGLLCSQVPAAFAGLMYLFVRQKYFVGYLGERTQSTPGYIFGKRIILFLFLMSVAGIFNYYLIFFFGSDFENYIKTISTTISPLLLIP

| Compound | Ki (human FLAP; wild type FLAP, HTRF format) | IC50 [1, 2] | Ki (human FLAP; [3]) | IC50 [1, 4] | Ki (human FLAP; [5]) |
| --- | --- | --- | --- | --- | --- |
| CC(C)CS(=O)(=O)N(C)c1ccccc1-c1ccc(-c2cnc(N)cn2)c(F)c1 [Example 497, N-[4′-(5-Aminopyrazin-2-yl)-3′-fluorobiphenyl-2-yl]-N,2-dimethylpropane-1-sulfonamide] | 25 nM | 510 nM |  |  |  |
| Nc1cnc(-c2ccc(-c3ccc(C(F)(F)F)cc3C(=O)N3CCOCC3)cc2F)cn1 [Example 521, 5-[3-Fluoro-2′-(morpholin-4-ylcarbonyl)-4′-(trifluoromethyl)biphenyl-4-yl]pyrazin-2-amine] | 5 nM | 13 nM |  |  |  |
| Nc1ncc(-c2ccc(-c3ccccc3Oc3ccnc(C(F)(F)F)c3)cc2F)cn1 [Example 611, 5-(3-Fluoro-2′-{[2-(trifluoromethyl)pyridin-4-yl]oxy}biphenyl-4-yl)pyrimidin-2-amine] | 249 nM | 563 nM |  |  |  |
| CC(C)(NS(=O)(=O)c1ccccc1-c1ccc(-c2cnc(N)nc2)c(F)c1)C(F)(F)F [Example 296, 4′-(2-Aminopyrimidin-5-yl)-3′-fluoro-N-(2,2,2-trifluoro-1,1-dimethylethyl)biphenyl-2-sulfonamide trifluoroacetic acid salt] |  |  | 5 nM | 66 nM |  |
| CC(C)(NS(=O)(=O)c1ccccc1-c1ccc(-c2cnc(N)cn2)c(F)c1)C(F)(F)F [Example 13, 4′-(5-Aminopyrazin-2-yl)-3′-fluoro-N-(2,2,2-trifluoro-1,1-dimethylethyl)biphenyl-2-sulfonamide] |  |  |  | 18 nM | 1 nM |
| CN1CCCC[C@@H](NS(=O)(=O)c2ccccc2-c2ccc(-c3cnc(N)cn3)c(F)c2)C1=O [Example 29, (S)-4′-(5-Aminopyrazin-2-yl)-3′-fluoro-N-[(3S)-1-methyl-2-oxoazepan-3-yl]biphenyl-2-sulfonamide] |  |  | 59 nM | 30 nM |  |
| CC(C)(O)CNS(=O)(=O)c1ccccc1-c1ccc(-c2cnc(N)nc2)c(F)c1 [Example 272, 4′-(2-Aminopyrimidin-5-yl)-3′-fluoro-N-(2-hydroxy-2-methylpropyl)biphenyl-2-sulfonamide trifluoroacetic acid salt] |  |  |  | 125 nM | 32 nM |
| Nc1cnc(-c2ccc(-c3ccc(Br)cc3F)cc2F)cn1 [Example 696, 5-(4′-Bromo-2′,3-difluorobiphenyl-4-yl)pyrazin-2-amine] | ~250 nM | 3270 nM |  |  |  |
| CC(C)S(=O)(=O)c1ncccc1-c1ccc(-c2cnc(N)nc2)c(F)c1 [Example 825, 5-(2-Fluoro-4-{2-[(1-methylethyl)sulfonyl]pyridin-3-yl}phenyl)pyrimidin-2-amine] | 273 nM | 122 nM |  |  |  |
| CC(C)COc1ncccc1-c1ccc(-c2cnc3[nH]ccc3n2)c(F)c1 [Example 398, 2-{2-Fluoro-4-[2-(2-methylpropoxy)pyridin-3-yl]phenyl}-5H-pyrrolo[2,3-b]pyrazine] | 34 nM | 1130 nM |  |  |  |
| CS(=O)(=O)CCCS(=O)(=O)c1ccccc1-c1ccc(-c2cnc(N)cn2)c(F)c1 [Example 246, 5-(3-Fluoro-2′-{[3-(methylsulfonyl)propyl]sulfonyl}biphenyl-4-yl)pyrazin-2-amine hydrochloride] |  |  | 199 nM | 302 nM |  |
| Nc1ncc(-c2ccc(-c3ccccc3S(=O)(=O)N3CCC[C@@H]3CO)cc2F)cn1 [Example 276, [(2R)-1-{[4′-(2-Aminopyrimidin-5-yl)-3′-fluorobiphenyl-2-yl]sulfonyl}pyrrolidin-2-yl]methanol trifluoroacetic acid salt] |  |  | 23 nM | 325 nM |  |
| N#Cc1nc(N)cnc1-c1ccc(-c2ccc(C(F)(F)F)cc2Oc2ncccn2)cc1F [Example 746, 6-Amino-3-[3-fluoro-2′-(pyrimidin-2-yloxy)-4′-(trifluoromethyl)biphenyl-4-yl]pyrazine-2-carbonitrile] | 2 nM | 137 nM |  |  |  |
| CC(C)(C)[C@H](CO)NS(=O)(=O)c1ccccc1-c1ccc(-c2cnc(N)nc2)c(F)c1 [Example 269, 4′-(2-Aminopyrimidin-5-yl)-3′-fluoro-N-[(1R)-1-(hydroxymethyl)-2,2-dimethylpropyl]biphenyl-2-sulfonamide trifluoroacetic acid salt] |  |  |  | 87 nM | 15 nM |
| Nc1nccc(Oc2ccccc2-c2ccc(-c3cnc4[nH]ccc4c3)c(F)c2)n1 [Example 523, 4-{[3′-Fluoro-4′-(1H-pyrrolo[2,3-b]pyridin-5-yl)biphenyl-2-yl]oxy}pyrimidin-2-amine] | 1 nM | 25 nM |  |  |  |
| CN1CCN(S(=O)(=O)c2ccccc2-c2ccc(-c3cnc(N)cn3)c(F)c2)CC1 [Example 54, 5-{3-Fluoro-2′-[(4-methylpiperazin-1-yl)sulfonyl]biphenyl-4-yl}pyrazin-2-amine] |  |  | 20 nM | 23 nM |  |
| CNS(=O)(=O)c1ccccc1-c1ccc(-c2cnc3[nH]cc(CO)c3c2)c(F)c1 [Example 457, 3′-Fluoro-4′-[3-(hydroxymethyl)-1H-pyrrolo[2,3-b]pyridin-5-yl]-N-methylbiphenyl-2-sulfonamide] | 3 nM | 140 nM |  |  |  |
| Nc1cnc(-c2ccc(-c3ccccc3N3CCCS3(=O)=O)cc2F)cn1 [Example 856, 5-[2′-(1,1-Dioxidoisothiazolidin-2-yl)-3-fluorobiphenyl-4-yl]pyrazin-2-amine] | 60.5 nM | 83.9 nM |  |  |  |
| Nc1cnc(-c2ccc(-c3ccccc3S(=O)(=O)N3CCN(C(=O)C4CC4)CC3)cc2F)cn1 [Example 58, 5-(2′-{[4-(Cyclopropylcarbonyl)piperazin-1-yl]sulfonyl}-3-fluorobiphenyl-4-yl)pyrazin-2-amine] |  |  | 5 nM | 991 nM |  |
| Nc1ncc(-c2ccc(-c3cccnc3OC3CCOCC3)cc2F)cn1 [Example 654, 5-{2-Fluoro-4-[2-(tetrahydro-2H-pyran-4-yloxy)pyridin-3-yl]phenyl}pyrimidin-2-amine] | 130 nM | 1050 nM |  |  |  |
| Nc1cnc(-c2ccc(-c3ccccc3CSc3cc(N)ncn3)cc2F)cn1 [Example 238, 6-(((4′-(5-Aminopyrazin-2-yl)-3′-fluoro-[1,1′-biphenyl]-2-yl)methyl)thio)pyrimidin-4-amine hydrochloride] |  |  | 5 nM | 38 nM |  |
| CC(C)(C)NS(=O)(=O)c1ccccc1-c1cnc(-c2cnc(N)nc2)c(F)c1 [Example 675, 2-[6-(2-Aminopyrimidin-5-yl)-5-fluoropyridin-3-yl]-N-tert-butylbenzenesulfonamide] | 0.7 nM | 55.1 nM |  |  |  |
| Nc1ncc(-c2ccc(-c3ccccc3S(=O)(=O)N3CCCC(CCO)C3)cc2F)cc1F (racemic) [Example 671, 2-(1-((4′-(6-Amino-5-fluoropyridin-3-yl)-3′-fluoro-[1,1′-biphenyl]-2-yl)sulfonyl)piperidin-3-yl)ethanol] | 15.7 nM | 164 nM |  |  |  |
| Nc1cnc(-c2ccc(-c3ccccc3S(=O)(=O)C3CCCC3)cc2F)cn1 [Example 195, 5-[2′-(Cyclopentylsulfonyl)-3-fluorobiphenyl-4-yl]pyrazin-2-amine] |  |  | 3 nM | 93 nM |  |
| Nc1cnc(-c2ccc(-c3ccccc3SCC3CNC(=O)O3)cc2F)cn1 (racemic) [Example 203, racemic 5-({[4′-(5-Aminopyrazin-2-yl)-3′-fluorobiphenyl-2-yl]sulfanyl}methyl)-1,3-oxazolidin-2-one] |  |  | 5 nM | 52 nM |  |
